# Measurements reported in PMC12216609, “Inhibitors of eIF1A-ribosome interaction unveil uORF-dependent regulation of translation initiation and antitumor and antiviral effects” (The EMBO Journal, 2025).
# Values joined by “and” are separate entries in the source; they are usually repeats but may differ in a detail not shown here. Identical values can stand only once. Like-named read-outs stand apart in the source and are kept apart here.
# How the values were obtained:
# eIF1A without NTT = molecular target: T1, eIF1A without NTT (Homo sapiens, UniProt P47813); experiment: Fluorescence binding assay with NTT-truncated eIF1A; settings: for fluorescence ratio, eIF1A Δ NTT: background-corrected, relative to DMSO or lowest 1Ai concentration, replicate columns
# T1 construct: His-bdSUMO (cleaved yes); made in house; host or cells: E. coli (BL-21)
# T1 sequence (P47813 31-144 limits assumed): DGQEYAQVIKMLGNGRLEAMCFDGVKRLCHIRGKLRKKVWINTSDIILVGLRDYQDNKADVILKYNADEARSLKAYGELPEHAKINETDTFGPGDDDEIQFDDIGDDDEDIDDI
# [1] = system: CUG/GUG vs AUG start codon luciferase reporters in HEK293T cells; experiment: Near-cognate AUG starting codon fidelity reporter assay (GUG, CUG vs AUG); assay type: cell-based; settings: for average CUG and GUG / average CUG and GUG relative to DMSO / CUG Average / GUG Average: NUG experiment; for CUG Average: CUG vs AUG reporter; for GUG Average: GUG vs AUG reporter; for NUG (Final data, Fig. 1E): average CUG and GUG relative to DMSO, 20 µM overnight; for GUG vs AUG data (%) / GUG vs AUG (%) Average: compound at 20uM; for GUG vs AUG data (%): individual repeat; for GUG vs AUG (%) Average: summary average of repeats, DMSO control average […]
# [2] = system: IRF7 5'UTR firefly luciferase reporter in HEK293T cells; settings: for Reference vs IRF7 (Final data, Fig. 1E): 1/Result, relative to DMSO; for Reference vs IRF7 (Final data, Fig. 1E) / LONG (summary - All), normalized to DMSO / SHORT (summary - All), normalized to DMSO / average ( long vs short ratio): 20 µM; for LONG (summary - All), normalized to DMSO: Long reporter; for LONG (summary - All), normalized to DMSO / SHORT (summary - All), normalized to DMSO: individual replicates, outliers excluded, DMSO = 1; for SHORT (summary - All), normalized to DMSO: Short reporter; for average ( long vs short ratio): summary - All;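 as to all read-outs here: luciferase signal corrected by a co-transfected GFP reporter for transfection efficiency, read after overnight compound exposure, with Long and Short reporters differing in 5'UTR length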
# NSP1 = NSP1 (Severe acute respiratory syndrome coronavirus 2, UniProt P0DTD1)
# eIF1A without CTT = molecular target: T2, eIF1A without CTT (Homo sapiens, UniProt P47813); assay type: binding; settings: for fluorescence ratio, eIF1A Δ CTT: background-corrected, relative to DMSO or lowest 1Ai concentration, replicate columns
# T2 construct: His-bdSUMO (cleaved yes); made in house; host or cells: E. coli (BL-21)
# T2 sequence (P47813 1-114 limits assumed): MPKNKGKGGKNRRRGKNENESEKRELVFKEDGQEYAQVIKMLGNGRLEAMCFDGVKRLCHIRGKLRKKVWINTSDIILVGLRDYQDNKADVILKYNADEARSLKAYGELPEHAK
# [3] = eIF1A Δ NTT, from the titration data, read-out: IC50 (eIF1A Δ NTT titration block)
# [4] = summary table, fluorescence binding assay, read-out: IC50 concentration (µM), NTT truncation
# [5] = eIF1A Δ CTT, from the titration data, read-out: IC50 (eIF1A Δ CTT titration block)
# [6] = summary table, fluorescence binding assay, read-out: IC50 concentration (µM), CTT truncation
structure (smiles),measurement,setting,value
CCOc1cc(C(=O)Nc2ccc(Cl)c(-c3nc4ccccc4[nH]3)c2)cc(OCC)c1OCC [1Ai-5677],binding to NTT-truncated eIF1A,eIF1A without NTT,significantly decreased
same,"fluorescence ratio, eIF1A Δ NTT",eIF1A without NTT; 1Ai conc. 0.25 uM,1
same,"fluorescence ratio, eIF1A Δ NTT",eIF1A without NTT; 1Ai conc. 0.5 uM,1 and 0.9156
same,"fluorescence ratio, eIF1A Δ NTT",eIF1A without NTT; 1Ai conc. 1 uM,1.054 and 0.8819
same,"fluorescence ratio, eIF1A Δ NTT",eIF1A without NTT; 1Ai conc. 2 uM,0.997 and 1.025
same,"fluorescence ratio, eIF1A Δ NTT",eIF1A without NTT; 1Ai conc. 4 uM,0.8973 and 1.017
same,"fluorescence ratio, eIF1A Δ NTT",eIF1A without NTT; 1Ai conc. 8 uM,0.994 and 0.865
same,"fluorescence ratio, eIF1A Δ NTT",eIF1A without NTT; 1Ai conc. 16 uM,1.091 and 0.9072
same,"fluorescence ratio, eIF1A Δ NTT",eIF1A without NTT; 1Ai conc. 32 uM,1.205 and 0.9494
same,"fluorescence ratio, eIF1A Δ NTT",eIF1A without NTT; 1Ai conc. 64 uM,1.39 and 0.8945
same,"fluorescence ratio, eIF1A Δ NTT",eIF1A without NTT; 1Ai conc. 256 uM,1.882 and 1.228
same,IC50,eIF1A without NTT; [3],109 µM
same,IC50,eIF1A without NTT; [4],109 µM
same,average CUG and GUG,[1],7.022
same,average CUG and GUG relative to DMSO,[1],1.557
same,CUG Average,[1],10.2182
same,GUG Average,[1],3.825
same,"NUG (Final data, Fig. 1E)",[1],1.557
same,GUG vs AUG data (%),[1],5.33% and 3.23% and 3.12% and 3.62%
same,GUG vs AUG (%) Average,[1],3.82%
same,"Reference vs IRF7 (Final data, Fig. 1E)",[2],1.223
same,"LONG (summary - All), normalized to DMSO",[2],0.42 and 0.28 and 0.29 and 0.61
same,"SHORT (summary - All), normalized to DMSO",[2],0.22 and 0.81 and 0.72 and 0.21
same,"Long 5'UTR reporter luciferase activity, normalized to DMSO (=1), single replicates","[2]; compound at 20 µM, left data block (Long), source data of Fig 1C",0.4235 and 0.2817 and 0.2949 and 0.6069
same,average ( long vs short ratio),[2],0.817
same,"GFP reporter ratio nsp1/gfp, avg",NSP1,0.572
same,"GFP reporter ratio nsp1/gfp, rep 1",NSP1,0.572
same,"gfp signal, mean of duplicate wells",NSP1,1615.5
same,"nsp1 signal, mean of duplicate wells",NSP1,924
same,ratio (nsp1/gfp),NSP1,0.572
same,"fluorescence ratio, eIF1A Δ CTT",eIF1A without CTT; 1Ai conc. 0.25 uM,0.9518 and 1.125
same,"fluorescence ratio, eIF1A Δ CTT",eIF1A without CTT; 1Ai conc. 0.5 uM,0.9965 and 1.042
same,"fluorescence ratio, eIF1A Δ CTT",eIF1A without CTT; 1Ai conc. 1 uM,1.031 and 1.16
same,"fluorescence ratio, eIF1A Δ CTT",eIF1A without CTT; 1Ai conc. 2 uM,1.066 and 1.079
same,"fluorescence ratio, eIF1A Δ CTT",eIF1A without CTT; 1Ai conc. 4 uM,1.073 and 1.131
same,"fluorescence ratio, eIF1A Δ CTT",eIF1A without CTT; 1Ai conc. 8 uM,1.007 and 1.089
same,"fluorescence ratio, eIF1A Δ CTT",eIF1A without CTT; 1Ai conc. 16 uM,1.119 and 1.152
same,"fluorescence ratio, eIF1A Δ CTT",eIF1A without CTT; 1Ai conc. 32 uM,1.196 and 1.27
same,"fluorescence ratio, eIF1A Δ CTT",eIF1A without CTT; 1Ai conc. 64 uM,1.276 and 1.31
same,"fluorescence ratio, eIF1A Δ CTT",eIF1A without CTT; 1Ai conc. 256 uM,1.365 and 1.556
same,IC50,eIF1A without CTT; [5],79.9 µM
same,IC50,eIF1A without CTT; [6],79.9 µM
Cc1cc(-n2c(C)cc(-c3csc(N)n3)c2C)no1 [1Ai-6464],"fluorescence ratio, eIF1A Δ NTT",eIF1A without NTT; 1Ai conc. 0.25 uM,0.925 and 0.9309
same,"fluorescence ratio, eIF1A Δ NTT",eIF1A without NTT; 1Ai conc. 0.5 uM,1.072 and 0.9557
same,"fluorescence ratio, eIF1A Δ NTT",eIF1A without NTT; 1Ai conc. 1 uM,1.214 and 0.9982
same,"fluorescence ratio, eIF1A Δ NTT",eIF1A without NTT; 1Ai conc. 2 uM,1.067 and 1.004
same,"fluorescence ratio, eIF1A Δ NTT",eIF1A without NTT; 1Ai conc. 4 uM,1.128 and 0.9504
same,"fluorescence ratio, eIF1A Δ NTT",eIF1A without NTT; 1Ai conc. 8 uM,1.103 and 0.7642
same,"fluorescence ratio, eIF1A Δ NTT",eIF1A without NTT; 1Ai conc. 16 uM,0.8611 and 0.7181
same,"fluorescence ratio, eIF1A Δ NTT",eIF1A without NTT; 1Ai conc. 32 uM,0.7861 and 0.6206
same,"fluorescence ratio, eIF1A Δ NTT",eIF1A without NTT; 1Ai conc. 64 uM,0.6389 and 0.5018
same,"fluorescence ratio, eIF1A Δ NTT",eIF1A without NTT; 1Ai conc. 256 uM,0.4333 and 0.2642
same,IC50,eIF1A without NTT; [3],37 µM
same,IC50,eIF1A without NTT; [4],37 µM
same,CUG vs AUG (%),"[1]; CUG start codon reporter relative to AUG reporter (AUG = 100), compound at 20uM (summary head), single-experiment calculation",6.312%
same,GUG vs AUG (%),"[1]; GUG start codon reporter relative to AUG reporter (AUG = 100), compound at 20uM (summary head), single-experiment calculation",1.439%
same,average CUG and GUG,[1],3.765
same,average CUG and GUG relative to DMSO,[1],0.8347
same,CUG Average,[1],6.092
same,GUG Average,[1],1.4368
same,"NUG (Final data, Fig. 1E)",[1],0.835
same,GUG vs AUG data (%),[1],1.40% and 1.10% and 1.81% and 1.45%
same,GUG vs AUG (%) Average,[1],1.44%
same,"Reference vs IRF7 (Final data, Fig. 1E)",[2],2.824
same,"LONG (summary - All), normalized to DMSO",[2],0.0351 and 0.33 and 0.45 and 0.34
same,"SHORT (summary - All), normalized to DMSO",[2],0.16 and 1.35 and 0.67 and 1.06
same,average ( long vs short ratio),[2],0.354
same,"GFP reporter ratio nsp1/gfp, avg",NSP1,0.5623
same,"GFP reporter ratio nsp1/gfp, rep 1",NSP1,0.5623
same,"gfp signal, mean of duplicate wells",NSP1,2104
same,"nsp1 signal, mean of duplicate wells",NSP1,1183
same,ratio (nsp1/gfp),NSP1,0.562
same,"fluorescence ratio, eIF1A Δ CTT",eIF1A without CTT; 1Ai conc. 0.25 uM,0.827 and 0.948
same,"fluorescence ratio, eIF1A Δ CTT",eIF1A without CTT; 1Ai conc. 0.5 uM,0.8882 and 1.055
same,"fluorescence ratio, eIF1A Δ CTT",eIF1A without CTT; 1Ai conc. 1 uM,0.8515 and 1.0065
same,"fluorescence ratio, eIF1A Δ CTT",eIF1A without CTT; 1Ai conc. 2 uM,0.8637 and 0.9317
same,"fluorescence ratio, eIF1A Δ CTT",eIF1A without CTT; 1Ai conc. 4 uM,0.8683 and 0.9724
same,"fluorescence ratio, eIF1A Δ CTT",eIF1A without CTT; 1Ai conc. 8 uM,0.6692 and 0.7821
same,"fluorescence ratio, eIF1A Δ CTT",eIF1A without CTT; 1Ai conc. 16 uM,0.7305 and 0.6862
same,"fluorescence ratio, eIF1A Δ CTT",eIF1A without CTT; 1Ai conc. 32 uM,0.608 and 0.5594
same,"fluorescence ratio, eIF1A Δ CTT",eIF1A without CTT; 1Ai conc. 64 uM,0.4364 and 0.4829
same,"fluorescence ratio, eIF1A Δ CTT",eIF1A without CTT; 1Ai conc. 256 uM,0.1547 and 0.1772
same,IC50,eIF1A without CTT; [5],35.4 µM
same,IC50,eIF1A without CTT; [6],35.4 µM
